Experimental data from patent US11219614B2, “Combination cancer therapy with pentaaza macrocyclic ring complex and ascorbate compound” (Galera Labs, LLC, priority 2016, dated 2022).

Tests used:
Lung cancer cells (H292) = test: clonogenic cell survival assay, H292; assay type: cell-based; details: ascorbate 1 h in combination with 5, 10 or 20 μM GC4419 24 h; compared to monotherapies; FIG. 2
Description: (§1) FIG. 2 is a plot showing the surviving fraction of H292 cells for increasing amounts of ascorbate, as determined by a clonogenic cell survival assay to used determine the effects of the compound alone and in combination with a pentaaza macrocyclic ring complex (GC4419). Lung cancer cells (H292) were exponentially grown in culture for 48 hours. The cells were then treated with 5-20 μM GC4419 for 24 hours, and ascorbate (Asc) for one hour, followed immediately by clonogenic assay. The cells were trypsinized, counted, replated at varying lower densities and incubated. Plates were stained and counted for clonogenic survival assays.
as §1, with “The effect” for “FIG. 2 is a plot showing the surviving fraction”, “ascorbate was tested in” for “H292 cells for increasing amounts of ascorbate, as determined by”, “to” for “to used”, “hour” for “hour,”, “followed” for “followed immediately”, “by immediate” for “by”

[1] = tested on: tongue carcinoma cells (Cal27); test: clonogenic cell survival assay, Cal27; assay type: cell-based, Human
Description: (§2) FIG. 4 is a plot showing the surviving fraction of Cal27 cells for increasing amounts of ascorbate, as determined by a clonogenic cell survival assay used to determine the effects of the compound alone and in combination with a pentaaza macrocyclic ring complex (GC4419). Human tongue carcinoma cells (Cal27) were exponentially grown in culture for 48 hours. The cells were then treated with 5-20 μM GC4419 for 24 hours, and ascorbate (Asc) for one hour, followed by immediate clonogenic assay. The cells were trypsinized, counted, replated at varying lower densities and incubated.
(§3) FIG. 6 is a graph showing the surviving fraction of Cal 27 cells treated with ascorbate and combinations with including ascorbate. The effects of ascorbic acid (AA) in combination with a pentaaza macrocyclic ring complex (GC4419) was tested in a clonogenic cell survival assay to determine the effects of the combination alone and when paired with ionizing radiation. Human tongue carcinoma cells (Cal27) were exponentially grown in culture for 48 hours. The cells were then treated with 5 μM GC4419 for 3 hours and 10 pmol/cell ascorbate for 1 hour, either alone, in combination (GC+AA), and/or paired with a dose of ionizing radiation (2 Gy). After the ionizing radiation dose, the cells were trypsinized, counted, replated at varying lower densities and incubated. Plates were stained and counted for clonogenic survival assays.
as §2, with “The effect” for “FIG. 4 is a plot showing the surviving fraction”, “ascorbate was tested in” for “Cal27 cells for increasing amounts of ascorbate, as determined by”, “assay” for “assay used”, “incubated. Plates were stained and counted for clonogenic survival assays.” for “incubated.”
as §3, with “The” for “FIG. 6 is a graph showing the surviving fraction of Cal 27 cells treated with ascorbate and combinations with including ascorbate. The”

[2] = tested on: oral mucositis in head-and-neck cancer patients; details: head-and-neck cancer patients undergoing chemoradiation therapy; cited from earlier work

SMILES: [Cl][Mn][Cl].c1cc2nc(c1)CN[C@H]1CCCC[C@@H]1NCCN[C@H]1CCCC[C@@H]1NC2 [GC4419]
- cell killing (clonogenic survival) (Lung cancer cells (H292)): significant enhancements in cell killing
- synergistic activity of the combination ([1]; 5 μM GC4419 3 h + 10 pmol/cell ascorbate 1 h (GC+AA), FIG. 6): more than merely an additive effect
- cell killing (clonogenic survival) ([1]; 5 μM GC4419 3 h + 10 pmol/cell ascorbate 1 h (GC+AA), compared to control and to either alone, FIG. 6): significant enhancements in cell killing
- sensitization to ionizing radiation ([1]; GC+AA+IR (2 Gy) compared to IR 2Gy alone, FIG. 6): sensitized the cancer cells to radiation
- cell killing (clonogenic survival) ([1]; ascorbate 1 h in combination with 5, 10 or 20 μM GC4419 24 h, compared to monotherapies, FIG. 4): significant enhancements in cell killing
- oral mucositis [2]: reduce oral mucositis
